Reference: article PMC10467082, “Anti-Toxoplasma gondii Effects of Lipopeptide Derivatives of Lycosin-I” (Toxins, 2023)
Entries after “also recorded” stand apart in the source; their conditions may differ. Square brackets hold non-standard residues; d marks the D form. Ends that are not written are not given here. Peptide text beside a SMILES is read from it. * marks the point of attachment. Lauroyl = CCCCCCCCCCCC(=O)*; Ahx = NCCCCCC(=O)O

Tests used:
[1] = test system: human foreskin fibroblasts (HFFs); assay: CCK-8 cell viability assay on host cells; format: cell-based; settings: CCK-8, HFFs, 24 h; for IC50: 80-1.25 μM twofold dilution, three independent experiments, read-out: half-inhibitory concentration (IC50) on HFF viability; for cytotoxicity to HFFs: comparison with Lycosin-I where stated
Method: HFF cells were seeded in 96-well plates (1 × 10^4 cells per well). After 24 h of incubation, the previous complete medium was removed and replaced with the new complete medium containing different concentrations (80–1.25 μM, twofold serial dilution) of lipopeptides. Cells were treated with the complete medium in one well as the control group (each group was set up with three wells). After 24 h, 10 μL of CCK-8 reagent was added to each well and then incubated for 2 h. The absorbance value was measured at 450 nm using a microplate reader. Three independent experiments were carried out.

[2] = mouse serum (b5) / 10% serum, 24 h, mass spectrometry; cited from earlier work
Text: Cationic peptides with an α-helical structure found in venoms constitute a class of antimicrobial peptides (AMPs). In this class, amphiphilic peptides with net positive charges tend to adopt an α-helix structure when in contact with a hydrophilic/hydrophobic interface (such as the membrane of microorganisms), which helps the AMPs to insert into the cell membrane and disrupt the integrity of the cell membrane. Phospholipids on cell membranes are one of the targets of transmembrane peptides with an α -helical structure. […] The serum stability of Lycosin-I was in ...

T. gondii tachyzoites [3] = assay: Serum stability assay: serum incubation followed by trypan blue assay; format: in vitro ADME, Toxoplasma gondii; settings: 100 μM in PBS containing 10% fetal bovine serum, 37 °C, 24 h; read-out tachyzoite mortality by trypan blue; three independent experiments
Method: (§1) To evaluate the difference of anti-T. gondii in the vitro between lipopeptides and Lycosin-I, we set up different concentration gradients, including 2.5 μM, 5 μM, 10 μM, 20 μM and 40 μM. The freshly obtained tachyzoites (3 × 10^6) were incubated with different concentrations of lipopeptides and PBS at room temperature for 2 h, then centrifuged at 3000 rbp for 8 min and the supernatant was discarded. The tachyzoite pellet was resuspended in PBS and mixed well. Then, the tachyzoite suspension was stained with 0.4% trypan blue staining solution for 5 min. Tachyzoite viability was observed under a light microscope (Motic China Group Co., Ltd., Xiamen, China), and five fields were randomly selected to calculate tachyzoite mortality. Three independent experiments were carried out.
A combination of serum incubation and a trypan blue assay was used to investigate whether or not the anti-Toxoplasma activity of lipopeptides and Lycosin-I was affected by serum. Briefly, stock solutions (1 mM) of Lycosin-I, L-C12 and L-an were diluted into 100 μM solutions in PBS containing 10% fetal bovine serum, and incubated at 37 °C for 24 h. Fresh tachyzoites were then treated with these solutions as described in the method in Section 5.3 for lipopeptide screening. Three independent experiments were carried out.

[4] = test system: T. gondii tachyzoites (RH strain); assay: Trypan blue assay of tachyzoite mortality (lipopeptide screening); format: cell-based, Toxoplasma gondii; settings: 2.5, 5, 10, 20, 40 μM, 2 h at room temperature
Method: as §1

TNF-α = format: in vivo, mouse; settings: 4 mg/kg, after 5 days of treatment, qRT-PCR
Method: (§2) Once T. gondii has infected a host, a number of inflammatory responses can be induced in the host to resist T. gondii invasion and proliferation. Therefore, we wanted to investigate the expression levels of anti-inflammatory and pro-inflammatory factors in the mice treated with lipopeptides. The expression levels of IFN-γ, TNF-α, IL-4 and IL-10 in the spleen tissues of mice after 5 days of treatment were determined via qRT-PCR (Figure 5). […] Compared to the PBS group, all treatment groups promoted the upregulation of the pro-inflammatory cytokines IFN-γ and TNF-α and the anti-inflammatory cytokine IL-4.
(§3) Total RNA was extracted from each sample using Total RNA Isolation Kit (ENOVA BIO Co., Ltd., Wuhan, China), in accordance with the manufacturer’s instructions. Reverse transcription of RNA into cDNA was performed using the PerfectStart Uni RT&qPCR Kit (TransGen Biotech Co., Ltd., Beijing, China) in accordance with the instructions. cDNA was used as a template for qRT-PCR using PerfectStart Uni RT&qPCR Kit (TransGen Biotech Co., Ltd., Beijing, China). Primers, listed in Table 2, were designed and synthesized by a biotechnology company (Sangon Biotech Co., Ltd., Shanghai, China). Analysis was performed using the comparative threshold cycle method (2^−∆∆Ct). The gene expression levels of genes were normalized to those of housekeeping genes (β-actin or GAPDH).

IFN-γ = format: in vivo, mouse; settings: 4 mg/kg, after 5 days of treatment, qRT-PCR
Method: as §2, §3

IL-10 = format: in vivo, mouse; settings: 4 mg/kg, after 5 days of treatment, qRT-PCR
Method: as §2, §3

IL-4 = format: in vivo, mouse; settings: 4 mg/kg, after 5 days of treatment, qRT-PCR
Method: as §2, §3

T. gondii tachyzoites [5] = format: cell-based, Toxoplasma gondii; settings: 10 μM, 7 days, 500 tachyzoites per well, HFFs
Method: The HFF cells were seeded in 6-well plates (1 × 10^6 cells per well) and incubated for 48–72 h. Cells in the 6-well plates were infected with 500 fresh tachyzoites per well for 2 h. The well in which cells were not infected with tachyzoites was considered the blank control group. Cells infected with tachyzoites were then treated with Lycosin-I (10 μM), L-C12 (10 μM), L-an (10 μM), SDZ (10 μM, positive control) and DMEM (negative control), respectively. After 7 days, HFFs in the plates were washed twice with PBS, fixed with methanol for 5 min, and then stained with crystal violet for 20 min. Six-well plates were washed with running water, dried, photographed, and then the number and area of plaques were counted using Photoshop version 2020. Three independent experiments were carried out.

T. gondii tachyzoites [6] = assay: Invasion assay of tachyzoites into HFFs; format: cell-based, Toxoplasma gondii; settings: tachyzoites pretreated 2 h at 10 μM, HFFs infected MOI 5 for 2 h
Method: The HFF cells were seeded in 24-well plates with 14 mm coverslips (1 × 10^5 cells per well) and incubated for 24 h. Fresh tachyzoites were obtained aseptically from the peritoneal fluid of the KM mouse acutely infected with T. gondii. The tachyzoites were treated with Lycosin-I (5 μM, 10 μM), L-C12 (5 μM, 10 μM), L-an (5 μM, 10 μM), SDZ (10 μM, positive control) and DMEM (negative control) for 2 h each. The HFFs were then infected with pre-treated tachyzoites at a multiplicity of infection (MOI) of 5 (tachyzoites/cells = 5). After 2 h, the previous complete medium was removed and the HFFs were washed twice with PBS to remove extracellular tachyzoites. They were then fixed with methanol for 5 min, and then stained with Giemsa for 15 min. The coverslips were examined under a light microscope. The invasion rate of tachyzoites was calculated by counting the number of cells invaded by tachyzoites and the total number of cells in 5 randomly selected fields. Three independent experiments were carried out.

T. gondii tachyzoites [7] = assay: Intracellular proliferation assay of tachyzoites in HFFs; format: cell-based, Toxoplasma gondii; settings: 10 μM, 24 h
Method: HFFs were seeded in 24-well plates (1 × 10^5 cells per well) with 14 mm coverslips and incubated for 24 h. The HFFs were infected with fresh tachyzoites at a MOI of 5 for 2 h. The HFFs were then washed twice with PBS to remove extracellular tachyzoites and then treated with Lycosin-I (5 μM, 10 μM), L-C12 (5 μM, 10 μM), L-an (5 μM, 10 μM), SDZ (10 μM, positive control) and DMEM (negative control) for 24 h each. The HFFs were then washed twice with PBS, fixed with methanol for 5 min, and then stained with Giemsa for 15 min. The coverslips were observed under a light microscope to count the number of tachyzoites in 100 parasitophorous vacuoles (PVs). Three independent experiments were carried out.

RH strain of T. gondii = format: in vivo, mouse; settings: BALB/c mice, 1 × 10^3 tachyzoites i.p.; 4 mg/kg/day i.p. for 7 days; monitored 15 days; n = 8
Method: To evaluate the anti-T. gondii effect of lipopeptides in vivo, we established a mouse model acutely infected with the RH strain of T. gondii. Forty 8-week-old female BALB/c mice weighing 17–19 g were randomly divided into 5 groups (n = 8 per group) and intraperitoneally injected with 1 × 10^3 tachyzoites per mouse. Lycosin-I, L-C12, L-an and sulfadiazine (SDZ) were dissolved in PBS, respectively. As these peptides are small linear peptides that are easily degraded by pepsin; mice were treated with these peptides via intraperitoneal injection (the same way that the mice were infected with T. gondii) rather than oral gavage. After 4 h of infection, mice were traperitoneally injected with 4 mg/kg of Lycosin-I, L-C12, L-an and sulfadiazine solution (once a day) for 7 days. Mice in the negative control group were treated with PBS. Mice in this condition observed daily and the time of death was recorded. The experiment was approved by the Ethics Committee of the School of Basic Medicine of Central South University (approval number: 2021-KT24).

CCCCCCCCCCCC(=O)N[C@@H](CCCCN)C(=O)NCC(=O)N[C@@H](Cc1c[nH]c2ccccc12)C(=O)N[C@@H](Cc1ccccc1)C(=O)N[C@@H](CCCCN)C(=O)N[C@@H](C)C(=O)N[C@@H](CCSC)C(=O)N[C@@H](CCCCN)C(=O)N[C@@H](CO)C(=O)N[C@H](C(=O)N[C@@H](C)C(=O)N[C@@H](CCCCN)C(=O)N[C@@H](Cc1ccccc1)C(=O)N[C@H](C(=O)N[C@@H](C)C(=O)N[C@@H](CCCCN)C(=O)N[C@@H](CCC(=O)O)C(=O)N[C@@H](CCCCN)C(=O)N[C@@H](CC(C)C)C(=O)N[C@@H](CCCCN)C(=O)N[C@@H](CCC(=O)O)C(=O)N[C@@H](Cc1c[nH]cn1)C(=O)N[C@@H](CC(C)C)C(=O)O)[C@@H](C)CC)[C@@H](C)CC [L-C12] (Lauroyl-KGWFKAMKSIAKFIAKEKLKEHL-OH)
IC50 [1]: 15.6 µM

CCCCCCCCCCCC(=O)N[C@@H](CCCCN)C(=O)NCC(=O)N[C@@H](Cc1c[nH]c2ccccc12)C(=O)N[C@@H](Cc1ccccc1)C(=O)N[C@@H](CCCCN)C(=O)N[C@@H](C)C(=O)N[C@@H](CCSC)C(=O)N[C@@H](CCCCN)C(=O)N[C@@H](CO)C(=O)N[C@H](C(=O)N[C@@H](C)C(=O)N[C@@H](CCCCN)C(=O)N[C@@H](Cc1ccccc1)C(=O)N[C@H](C(=O)N[C@@H](C)C(=O)N[C@@H](CCCCN)C(=O)N[C@@H](CCC(=O)O)C(=O)N[C@@H](CCCCN)C(=O)N[C@@H](CC(C)C)C(=O)N[C@@H](CCCCN)C(=O)N[C@@H](CCC(=O)O)C(=O)N[C@@H](Cc1cnc[nH]1)C(=O)N[C@@H](CC(C)C)C(=O)O)[C@@H](C)CC)[C@@H](C)CC [L-C12] (Lauroyl-KGWFKAMKSIAKFIAKEKLKEHL-OH)
cytotoxicity to HFFs [1]: higher cytotoxicity | degradation after incubation in serum [2]: not degraded | anti-T. gondii activity after serum treatment compared to control untreated with serum (T. gondii tachyzoites [3]): no significant difference; also recorded: retained substantial anti-T. gondii activity

CC[C@H](C)[C@H](NC(=O)[C@H](Cc1ccccc1)NC(=O)[C@H](CCCCN)NC(=O)[C@H](C)NC(=O)[C@@H](NC(=O)[C@H](CO)NC(=O)[C@H](CCCCN)NC(=O)[C@H](CCSC)NC(=O)[C@H](C)NC(=O)[C@H](CCCCN)NC(=O)[C@H](Cc1ccccc1)NC(=O)[C@H](Cc1c[nH]c2ccccc12)NC(=O)CNC(=O)[C@H](CCCCN)NC(=O)CCCCCN)[C@@H](C)CC)C(=O)N[C@@H](C)C(=O)N[C@@H](CCCCN)C(=O)N[C@@H](CCC(=O)O)C(=O)N[C@@H](CCCCN)C(=O)N[C@@H](CC(C)C)C(=O)N[C@@H](CCCCN)C(=O)N[C@@H](CCC(=O)O)C(=O)N[C@@H](Cc1c[nH]cn1)C(=O)N[C@@H](CC(C)C)C(=O)O [L-an] (H-[Ahx]KGWFKAMKSIAKFIAKEKLKEHL-OH)
IC50 [1]: 30.9 µM | cytotoxicity to HFFs [1]: no significant difference | anti-T. gondii activity after serum treatment compared to control untreated with serum (T. gondii tachyzoites [3]): no significant difference; also recorded: retained substantial anti-T. gondii activity

NCCCCCC(=O)O [aminocaproic acid]
anti-T. gondii activity in vitro (tachyzoite mortality) [4]: no effect

H-KGWFKAMKSIAKFIAKEKLKEHL-OH [Lycosin-I]
expression of TNF-α in spleen compared to PBS group (TNF-α): promoted the expression | expression of IFN-γ in spleen compared to PBS group (IFN-γ): promoted the expression | expression of IL-10 in spleen compared to PBS group (IL-10): inhibited the upregulation of IL-10 | expression of IL-4 in spleen compared to PBS group (IL-4): promoted IL-4 expression | number and area of plaques in contrast with DMEM group (T. gondii tachyzoites [5]): significantly reduced | plaques compared to DMEM group (T. gondii tachyzoites [5]): reduced | inhibition of tachyzoite invasion compared with SDZ (T. gondii tachyzoites [6]): more pronounced inhibition than SDZ | proliferation rate of tachyzoites in HFFs (negative group = 100%) (T. gondii tachyzoites [7]; HFFs infected at MOI 5): below 55% | PVs with 16 tachyzoites (T. gondii tachyzoites [7]; proportion in 100 PVs): hard to see a PV with 16 tachyzoites | survival time of mice compared to control group (RH strain of T. gondii): significantly prolonged the survival time

KGWFKAMKSIAKFIAKEKLKEHL [Lycosin-I]
cytotoxicity to HFFs [1]: concentration-dependent cytotoxicity | anti-T. gondii activity after serum treatment compared to control untreated with serum (T. gondii tachyzoites [3]): significantly had reduced anti-T. gondii activity; also recorded: only slightly decreased
